The source of these data is PubChem BioAssay AID1241 (SRMLSC, 2008).

The experiment is described as follows: NF-kB promoter reporter activators, neuronal cells, dose response, cell-based, SH-SY5Y, luciferase (AID 1241). Particulars: fold induction.
By EC50 is commonly meant the concentration giving half of the maximal effect. Regarding `O=C(NC1=NCCS1)c1sc2ccccc2c1Cl`, the EC50 is 5760 nM.
Turning to `O=C(Nc1ccc2c(c1)OCO2)c1ccc(Br)s1`, the EC50 was 4220 nM.
As for `O=C(Nc1ccccc1O)c1ccc(NS(=O)(=O)c2cccc3cccnc23)cc1`, the figure is 21900 nM.
As for `Cc1ccc(NC(=O)N2CCc3ccccc32)cc1`, the figure is 763 nM; as for `Cc1ccc(-n2c(C)cc(C(=O)CSc3nnnn3C)c2C)cc1`, 1320 nM.
As for `O=C(Nc1ccc(Cl)cn1)c1cc2ccccc2o1`, the figure is 2430 nM; as for `O=C(Nc1ccc2c(c1)CCC2)c1cc2ccccc2o1`, 2410 nM; as for `O=C(Nc1ccc(F)cc1)/C(Cl)=C/c1ccccc1`, 23400 nM.
Consider `Nc1c(C(=O)Nc2ccc(Cl)cc2)oc2ccccc12`, for which the EC50 is 11000 nM.
As for `N#C/C(=C\c1ccc(OCc2ccc(C(=O)O)cc2)cc1)C(=O)N1CCOCC1`, the EC50 is 12100 nM.
As for `Oc1ccc(F)cc1-c1cc(-c2ccc3c(c2)OCCO3)n[nH]1`, the EC50 is 1010 nM.
In the case of `O=C(Nc1nc2c(s1)CCCC2)c1ccc(Br)s1`, the 50% effective concentration (EC50) is 1070 nM.
To `Cc1ccc(NC(=O)c2ccccc2)s1` belongs 6430 nM; to `Cc1ccc(OCc2nc(-c3cccs3)no2)c([N+](=O)[O-])c1`, 769 nM; to `Cc1ccc(/C=N/Nc2nc3ccccc3s2)o1`, 790 nM.
`CCOc1ccc2cc(C#N)c(SCC(=O)OC)nc2c1`: the EC50 is 14500 nM.
As for `O=C(Nc1ccon1)c1cc2c(s1)CCCC2`, the EC50 is 4130 nM.
To `O=C(/C=C/c1ccccc1Cl)c1ccccc(=O)c1O` belongs 8070 nM; to `COCC(=O)Nc1nnc(-c2ccc(C(C)(C)C)cc2)s1`, 11000 nM; to `O=C(Nc1ccc(N2CCCCC2)cc1)c1ccccc1`, 978 nM.
As for `Cc1ccc(-c2nnc(SCc3ccccc3F)o2)cc1`, the figure is 4630 nM; as for `O=C1C(c2cc(=O)c3ccccc3[nH]2)=C(O)c2ccccc21`, 4980 nM.
To `Nc1nc(-c2cccnc2)nc2sc3c(c12)CCCC3` belongs 6840 nM.
On to `C=CCNc1nc(-c2cc3ccccc3o2)cs1`, for which the EC50 is 598 nM.
As for `O=C(NCCSc1ccccc1)c1ccc(Br)cc1`, the figure is 1340 nM.
Turning to `O=C(Nc1ccc(N2CCCC2)c(Cl)c1)c1cccs1`, the EC50 is 1510 nM.
As for `CNC(=O)Oc1cccc(-c2cn3cc(Cl)ccc3n2)c1`, the figure is 1260 nM.
To `C/C(=N\NC(=O)c1ccc(Cl)cc1)c1cccs1` belongs 1400 nM; to `c1cn2cc(-c3ccc4c(c3)OCO4)nc2s1`, 1860 nM; to `Cc1ccc(NC(=O)c2ccccn2)c(Br)c1`, 18900 nM.
As for `COc1ccc(Nc2nc3ccccc3s2)cc1`, the figure is 20400 nM.
As for `COC(=O)CSc1nc2cc(OC)ccc2cc1C#N`, the EC50 is 295 nM.
As for `N/C(=N\OC(=O)COc1ccc(Br)cc1Cl)c1ccccn1`, the figure is 1060 nM; as for `CC(=O)c1cnc2cc(-c3ccc(C)cc3)nn2c1C`, 3260 nM; as for `CCc1ccc(C2=NN(S(C)(=O)=O)C(c3cccs3)C2)cc1` (stereo unspecified), 2850 nM.
To `Cc1ccc(/C=N/Nc2ccc(Cl)c(C(=O)O)c2)s1` belongs 12800 nM; to `O=C(Nc1ccc2c(c1)CCC2)c1ccccc1F`, 1800 nM.
In the case of `Cc1csc(NC(=O)c2ccc(C)c([N+](=O)[O-])c2)n1`, the EC50 was 2120 nM.
For the compound `c1cnc(SCCOc2ccc3c(c2)CCC3)nc1`, the EC50 was 8800 nM.
For the compound `CC(C)N=C1NN=C(c2ccc(Cl)c(Cl)c2)CS1`, the EC50 was 1420 nM.
As for `Cc1ccc(CN=C2Nc3ccccc3CS2)cc1`, the figure is 1190 nM.
To `Cn1c(-c2ccco2)nc2cc3ccccc3cc21` belongs 816 nM; to `Cc1ccc2oc(-c3cccc(N)c3)nc2c1`, 660 nM.
To `CCCCc1ccc(-c2ccc(Br)cc2O)nc1` belongs 3360 nM; to `O=C(CSC(=S)N1CCSCC1)c1ccccc1`, 3440 nM.
Regarding `CC(=O)c1sc(N/N=C\c2ccccc2O)nc1C`, the EC50 was 5530 nM.
To `O=S1(=O)N=C(Nc2nc3c(s2)CCCC3)c2ccccc21` belongs 21800 nM; to `COC(=O)c1ccc(NC(=O)C(=O)c2cccn2C)cc1`, 1710 nM; to `Cc1ccc(NC(=O)c2ccccc2O)cc1`, 3230 nM.
For `COc1ccc(-c2csc(N3C(=O)CNC3=S)n2)cc1`, the EC50 is 935 nM.
As to `Oc1ccc(CN2CCN(Cc3ccccc3)CC2)c2cccnc12`, the EC50 is 5240 nM.
To `O=S(=O)(c1ccc(Cl)cc1)c1snnc1-c1ccccc1` belongs 2330 nM.
To `COc1cccc(CNc2cnc3ccccc3c2)c1O` belongs 13900 nM.
As for `Oc1cccc(-c2nc3ccccc3s2)c1`, the figure is 4100 nM; as for `CCCCNc1ncnc2c1cnn2-c1ccc(Cl)cc1`, 7760 nM.
On to `O=C(Nc1ccc2ccccc2c1)c1onc2c1CCCC2`, for which the concentration for a half-maximal effect (EC50) was 632 nM.
With `Clc1ccc(Nc2nc(-c3cccs3)cs2)nc1`, the EC50 is 686 nM.
As for `Cc1nn(-c2nc3ccccc3s2)c(N)c1-c1ccccc1`, the EC50 was 9750 nM.
Take `COc1cccc(-c2cc(C(=O)N3CCCCCC3)no2)c1`: the EC50 is 1990 nM.
`COc1ccc(/C=C2\SC(=O)N(CCNC(=O)C3CC4C=CC3C4)C2=O)cc1` (stereo unspecified): the EC50 is 4140 nM.
On to `CC(C)c1ccc(-n2cnn(-c3ncccc3[N+](=O)[O-])c2=O)cc1`, for which the EC50 is 1590 nM.
To `COc1ccccc1N1CCN(Cc2ccc(O)c3ncccc23)CC1` belongs 1160 nM; to `Cc1cc(/C=C(\C#N)C(=O)Nc2ccccc2F)c(C)[nH]1`, 28700 nM; to `CC1CC1C(=O)OCC(=O)Nc1ccc(N=Nc2ccccc2)cc1` (stereo unspecified), 15400 nM.
As for `COc1ccc2[nH]c3c(c2c1)CCn1c-3nc2ccccc2c1=O`, the figure is 185 nM; as for `Fc1ccc(Nc2ccc3ccccc3n2)c(F)c1`, 698 nM; as for `COc1ccc(-c2cc(=O)c3ccccc3s2)cc1`, 2060 nM.
To `N#C/C(=N\Nc1ccc(Cl)cc1)C(=N)N1CCCCC1` belongs 1720 nM; to `O=C(Nc1ccc2c(c1)OCCO2)Nc1ccc2c(c1)OCO2`, 114 nM.
For `CCOC(=O)c1sc(NC(=O)Nc2ccc(F)cc2)nc1C`, the EC50 was 2670 nM.
As for `N/C(=N\N=C\c1cccc(O)c1)c1nonc1N`, the figure is 3310 nM; as for `Cc1ccc(C(=O)/C=C/Nc2ccc3c(c2)OCO3)cc1`, 896 nM; as for `Nc1nn(-c2ccccc2)c(N)c1N=Nc1ccc2c(c1)OCO2`, 1600 nM.
To `COc1cccc([C@@H]2Oc3ccc(OC)cc3C(=O)[C@H]2O)c1` belongs 5860 nM; to `S=C(Nc1ccccn1)c1ccccn1`, 2030 nM; to `O=Cc1cn(-c2ccccc2)nc1-c1ccc2c(c1)OCCO2`, 6400 nM.
As for `Nc1nn(-c2ccccc2)c(N)c1N=Nc1ccccc1F`, the figure is 1010 nM; as for `Cc1nc(N)sc1N=Nc1ccc(Br)cc1`, 7000 nM.
For `C=CCNc1ncnc2c1cnn2-c1ccc(Cl)cc1`, the EC50 is 1820 nM.
As for `Cc1cc(O)ccc1Nc1nc(-c2cccs2)cs1`, the figure is 1510 nM.
As for `CC(/C=N/Nc1nc2ccccc2[nH]1)=C\c1ccccc1`, the figure is 4160 nM; as for `CN(C)c1ccc(NC(=O)CCCc2ccccc2)cc1`, 2460 nM; as for `CC(C)c1ccc(/C=N/NC(=O)c2cccc(Cl)c2)cc1`, 28800 nM.
Turning to `O=C(O)c1cc(N/N=C/c2ccc3c(c2)OCCO3)ccc1Cl`, the EC50 is 26500 nM.
To `COc1ccccc1/C=C/C(=O)Nc1ccc2c(c1)CCC2` belongs 5640 nM; to `C=CCNc1oc(/C=C/c2ccccc2)nc1C#N`, 27000 nM.
To `COc1ccc(-c2cc(=O)c3cc(OC)ccc3o2)cc1` belongs 3920 nM; to `Cc1cc(C(=O)Nc2nc3c(s2)CCCC3)cs1`, 1630 nM; to `Clc1ccccc1Nc1nc(-c2cccnc2)cs1`, 1860 nM.
As to `COc1ccc2c(c1OC)C(=O)OC2Nc1nc(-c2cc3ccccc3oc2=O)cs1` (stereo unspecified), the EC50 was 2100 nM.
As to `Cc1ccc(NC(=O)N2CCC(c3ccccc3)C2)cc1C` (stereo unspecified), the EC50 is 5300 nM.
As for `CCOC(=O)/C(=C\c1ccccc1)C(=O)c1cc(C(C)=O)c(Nc2ccccc2)s1`, the figure is 17400 nM.
As to `Cc1ccc(/C=N/Nc2cccc3cccnc23)c(O)c1`, the EC50 is 9470 nM.
As for `CCOC(=O)c1sc(NC(=O)c2ccccc2)cc1C`, the figure is 5740 nM; as for `COc1ccc(NC(=O)C2=Cc3ccccc3OC2)cc1`, 800 nM.
For `CCOC(=O)N/C(N)=N/c1nc2ccccc2s1`, the EC50 was 9450 nM.
On to `Fc1ccc(-c2cnn3c(-c4ccncc4)ccnc23)cc1`, for which the EC50 is 1240 nM.
Consider `COc1ccc(NC(=O)c2cc3ccccn3n2)cc1`, for which the EC50 is 958 nM.
As for `Oc1c(C(Nc2ccccn2)c2ccccn2)ccc2cccnc12` (stereo unspecified), the figure is 3990 nM.
As for `O=C(Nc1cnc2ccccc2c1)c1ccco1`, the figure is 1380 nM; as for `O=C(Cc1cccs1)Nc1nc2c(s1)CCCC2`, 20200 nM.
As for `Cc1ccc(Cc2cnc(NC(=O)c3cccs3)s2)cc1`, the figure is 4960 nM; as for `COc1ccc(/C=N/Nc2cc(OC)ncn2)cc1`, 341 nM; as for `Cc1ccccc1-c1cc(-c2ccccc2O)n[nH]1`, 18000 nM.
For the compound `Cc1ccccc1-c1noc(-c2ccc(O)cc2)n1`, the half-maximal effective concentration (EC50) is 6210 nM.
As for `CCOC(=O)c1ccc2nc(NC(=O)c3cccs3)sc2c1`, the figure is 1930 nM.
As for `Cc1ccc(/C=C/C(=O)N2CCc3ccccc32)o1`, the figure is 1330 nM; as for `Clc1cccc(Cl)c1/C=C/c1nc2ccccc2[nH]1`, 1190 nM.
With `COc1c(C)cccc1C(=O)Nc1ccc(N2CCOCC2)c(Cl)c1`, the EC50 was 13400 nM.
As for `Cc1ccc(C(=O)/C=C/Nc2ccccc2C(N)=O)cc1`, the figure is 511 nM; as for `c1ccc2oc(-c3csc(NCC4CCCO4)n3)cc2c1` (stereo unspecified), 2540 nM; as for `COc1ccc(C(=O)/C=C2\Sc3ccccc3N2C)cc1`, 1750 nM.
To `C/C(N)=C(/C#N)C(=O)CSc1nnc(-c2ccc3c(c2)OCO3)o1` belongs below 59 nM.
To `COc1ccc2nc(NC(=O)Nc3ccccc3)sc2c1` belongs 899 nM; to `Cc1ccc(NC(=O)c2scc3c2CCCC3)cc1`, 714 nM.
Turning to `O=c1c2ccccc2cnn1-c1ccc(Br)cc1`, the EC50 was 10200 nM.
